Measurements: patent US20260166039A1 (SCHRÖDINGER, INC., priority 2022, published 2026)
Read-outs that look alike come from different tables or passages of the source.

What was measured:
Wee1 kinase domain = biological target: T1, Wee1 kinase domain (Homo sapiens, UniProt P30291); assay: Wee1 Kinase Biochemical Assay (ADP-Glo); conditions: 15 uM ATP
T1 construct: Wee1 kinase domain was purchased from Carna (catalog #05-177); purchased Carna 05-177
Summary of the method: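 ADP-Glo detection of ADP produced after 4 h at 25° C by 1 nM Wee1 kinase domain on 2 ng/mL poly(Lys,Tyr 4:1) with 15 uM ATP. Buffer: 40 mM Tris-HCl, 20 mM MgCl2, 0.1 mg/mL BSA, 2 mM DTT. Inhibition is relative to DMSO (high) and saturating Wee1 inhibitor (low) controls.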

[1] = tested on: phosphorylation of Cdc2 Y15 (Wee1 substrate) in A427 cells; assay: Phosphorylated Cdc2 MSD Electrochemiluminescence Assay; type: cell-based; conditions: Homo sapiens
Summary of the method: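 Read-out: percent residual phospho-Cdc2 Y15 relative to DMSO and positive-control Wee1 inhibitor, measured by MSD electrochemiluminescence capture/detection antibody assay in cell lysates. A427 cells received duplicate 3-fold compound dilution series 20 h post-seeding, with 6 h total incubation at 37 °C.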

[2] = class symbols, 1 nM Wee1 enzyme, 4 hours at 25° C.
[3] = A-427, class symbols, read-out: A427 pCDC2 MSD IC50

T1 sequence (P30291 299-569 limits assumed): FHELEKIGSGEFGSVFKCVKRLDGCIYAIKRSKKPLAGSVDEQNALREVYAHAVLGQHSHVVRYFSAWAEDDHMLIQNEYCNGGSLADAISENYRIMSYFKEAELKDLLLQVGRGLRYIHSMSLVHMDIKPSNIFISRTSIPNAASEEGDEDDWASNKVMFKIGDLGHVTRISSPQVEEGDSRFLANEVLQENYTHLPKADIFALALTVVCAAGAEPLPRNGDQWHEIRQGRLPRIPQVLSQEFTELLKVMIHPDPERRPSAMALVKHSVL

| SMILES | IC50 (Wee1 kinase domain; Wee1 kinase domain, ADP-Glo) [nM] | IC50 ([1]; A-427, pCDC2 MSD) [nM] | IC50 (Wee1 kinase domain; [2]) [nM] | IC50 [1, 3] [nM] |
| --- | --- | --- | --- | --- |
| C[C@H]1COC(=O)N1c1cccc(N2c3nc(Nc4ccc(O[C@@H]5CCNC5)cc4)ncc3[C@@]3(C)COC(C)(C)C[C@@H]23)n1 (single isomer, unassigned) [Example 327] | < 10 | 100 to 1000 | – | – |
| CC1(C)C[C@H]2N(c3cccc(N=S(C)(C)=O)n3)c3nc(Nc4cnn(C(F)(F)F)c4)ncc3[C@@]2(C)CO1 (single isomer, unassigned) [Example 488] | – | – | < 10 | 100 to 1000 |
| Cc1cc(Nc2ncc3c(n2)N(c2cccc(N4C(=O)OC[C@@H]4C)n2)[C@@H]2CC(C)(C)OC[C@]32C)ccc1N1C[C@@H]2C[C@H]1CN2C (single isomer, unassigned) [Example 295] | < 10 | 100 to 1000 | – | – |
| CC1(C)C[C@H]2N(c3cccc(N=S(C)(C)=O)n3)c3nc(Nc4ccc([C@H]5CCCN5)nc4)ncc3[C@@]2(C)CO1 (single isomer, unassigned) [Example 212] | < 10 | 100 to 1000 | – | – |
| C[C@H]1COC(=O)N1c1cccc(N2c3nc(Nc4ccc([C@@H]5CCN(C)C5)cc4)ncc3[C@@]3(C)COC(C)(C)C[C@@H]23)n1 (single isomer, unassigned) [Example 305] | < 10 | 100 to 1000 | – | – |
| CC1(C)C[C@H]2N(c3cccc(N=S(C)(C)=O)n3)c3nc(Nc4cnn(C5COC5)c4)ncc3[C@@]2(C)CO1 (single isomer, unassigned) [Example 223] | < 10 | 100 to 1000 | – | – |
| CNCc1ccc(Nc2ncc3c(n2)N(c2cccc(N4C(=O)CC[C@@H]4C)n2)[C@@H]2CC(C)(C)OC[C@]32C)cc1 (single isomer, unassigned) [Example 730] | – | – | < 10 | 100 to 1000 |
| CNCc1cccc(N2c3nc(Nc4ccn(C5CCOCC5)c(=O)c4)ncc3[C@@]3(C)COC(C)(C)C[C@@H]23)n1 (single isomer, unassigned) [Example 386] | < 10 | 100 to 1000 | – | – |
| CN1CC[C@@H](Oc2ccc(Nc3ncc4c(n3)N(c3cccc(N5CCCC5=O)n3)[C@@H]3CC(C)(C)OC[C@]43C)cc2)C1 [Example 626, 1-(6-((4bR,8aR)-4b,7,7-trimethyl-2-((4-(((R)-1-methylpyrrolidin-3-yl)oxy)phenyl)amino)-4b,7,8,8a-tetrahydropyrano[3′,4′:4,5]pyrrolo[2,3-d]pyrimidin-9(5H)-yl)pyridin-2-yl)pyrrolidin-2-one] | – | – | < 10 | 100 to 1000 |
| CN1CC2(C1)CN(c1ccc(Nc3ncc4c(n3)N(c3cccc(N=S(C)(C)=O)n3)[C@@H]3CC(C)(C)OC[C@]43C)cc1)C2 [Example 219, dimethyl((6-((4bR,8aR)-4b,7,7-trimethyl-2-((4-(6-methyl-2,6-diazaspiro[3.3]heptan-2-yl)phenyl)amino)-4b,7,8,8a-tetrahydropyrano[3′,4′:4,5]pyrrolo[2,3-d]pyrimidin-9(5H)-yl)pyridin-2-yl)imino)-l6-sulfanone] | < 10 | 100 to 1000 | – | – |
| CN1CC[C@@H](n2ccc(Nc3ncc4c(n3)N(c3cccc(N=S(C)(C)=O)n3)[C@@H]3CC(C)(C)OC[C@]43C)n2)C1 (single isomer, unassigned) [Example 227] | < 10 | 1000 to 10000 | – | – |
| CN1CC[C@@H](Oc2ccc(Nc3ncc4c(n3)N(c3cccc(N=S(C)(C)=O)n3)[C@@H]3CC(C)(C)OC[C@]43C)cc2)C1 (single isomer, unassigned) [Example 159] | < 10 | < 100 | – | – |
| CC1(C)C[C@H]2N(c3cccc(N=S(C)(C)=O)n3)c3nc(Nc4ccn(C(F)F)c(=O)c4)ncc3[C@@]2(C)CO1 (single isomer, unassigned) [Example 374] | < 10 | 100 to 1000 | – | – |
| CN1CCC(c2ccc(Nc3ncc4c(n3)N(c3cccc(N5CCOC5=O)n3)[C@@H]3CC(C)(C)OC[C@]43C)cc2)CC1 (single isomer, unassigned) [Example 591] | – | – | < 10 | 100 to 1000 |
| CC1(C)C[C@H]2N(c3cccc(N=S(C)(C)=O)n3)c3nc(NC(=O)[C@@H]4C[C@H]4c4ccccc4)ncc3[C@@]2(C)CO1 (single isomer, unassigned) [Example 396] | < 10 | 100 to 1000 | – | – |
| CN1C[C@@H]2CN(c3ccc(Nc4ncc5c(n4)N(c4cccc(N=S(C)(C)=O)n4)[C@@H]4CC(C)(C)OC[C@]54C)cc3)C[C@@H]2C1 (single isomer, unassigned) [Example 217] | < 10 | 100 to 1000 | – | – |
| CN1C[C@@H]2C[C@H]1CN2c1ccc(Nc2ncc3c(n2)N(c2cccc(N4CCCC4=O)n2)[C@@H]2CC(C)(C)OC[C@]32C)cc1F [Example 640, 1-(6-((4bR,8aR)-2-((3-fluoro-4-((1S,4S)-5-methyl-2,5-diazabicyclo[2.2.1]heptan-2-yl)phenyl)amino)-4b,7,7-trimethyl-4b,7,8,8a-tetrahydropyrano[3′,4′:4,5]pyrrolo[2,3-d]pyrimidin-9(5H)-yl)pyridin-2-yl)pyrrolidin-2-one] | – | – | < 10 | 100 to 1000 |

| SMILES | IC50 (Wee1 kinase domain; Wee1 kinase domain, ADP-Glo) [nM] | IC50 ([1]; A-427, pCDC2 MSD) [nM] | IC50 (Wee1 kinase domain; [2]) [nM] | IC50 [1, 3] [nM] |
| --- | --- | --- | --- | --- |
| CNCc1cccc(N2c3nc(NC(=O)[C@@H]4C[C@H]4c4cccnc4)ncc3[C@@]3(C)COC(C)(C)C[C@@H]23)n1 [Example 768, (1R,2R)-2-(pyridin-3-yl)-N-((4bR,8aR)-4b,7,7-trimethyl-9-(6-((methylamino)methyl)pyridin-2-yl)-4b,5,7,8,8a,9-hexahydropyrano[3′,4′:4,5]pyrrolo[2,3-d]pyrimidin-2-yl)cyclopropane-1-carboxamide] | – | – | < 10 | 100 to 1000 |
| COc1cccc(N2c3nc(Nc4ccc(N5CCN(C)CC5)cc4)ncc3[C@@]3(C)COC(C)(C)C[C@@H]23)n1 (single isomer, unassigned) [Example 758] | – | – | < 10 | 100 to 1000 |
| CC1(C)C[C@H]2N(c3cccc(N=S(C)(C)=O)n3)c3nc(Nc4ccc([C@H]5CCNC5)cc4)ncc3[C@@]2(C)CO1 (single isomer, unassigned) [Example 137] | < 10 | < 100 | – | – |
| C[C@H]1COC(=O)N1c1cccc(N2c3nc(Nc4ccc([C@H]5CCN(C)C5)nc4)ncc3[C@@]3(C)COC(C)(C)C[C@@H]23)n1 (single isomer, unassigned) [Example 263] | < 10 | < 100 | – | – |
| CC1(C)C[C@H]2N(c3ccc4c(n3)CCNC4)c3nc(Nc4ccc(N5CCOCC5)cc4)ncc3[C@@]2(C)CO1 (single isomer, unassigned) [Example 562] | – | – | < 10 | 100 to 1000 |
| CNCc1cccc(N2c3nc(Nc4ccc(N5CCN(C)C(=O)C5)cc4)ncc3[C@@]3(C)COC(C)(C)C[C@@H]23)n1 (single isomer, unassigned) [Example 450] | – | – | < 10 | 100 to 1000 |
| Cc1cncc(Nc2ncc3c(n2)N(c2cccc(N=S(C)(C)=O)n2)[C@@H]2CC(C)(C)OC[C@]32C)c1 (single isomer, unassigned) [Example 492] | – | – | < 10 | < 100 |
| CC1(C)C[C@H]2N(c3cccc(N=S(C)(C)=O)n3)c3nc(Nc4ccnnc4)ncc3[C@@]2(C)CO1 (single isomer, unassigned) [Example 799] | – | – | < 10 | 1000 to 10000 |
| CNC1(c2cccc(N3c4nc(Nc5ccc(C6CCN(C)CC6)c(C)c5)ncc4[C@@]4(C)COC(C)(C)C[C@@H]34)n2)CC1 (single isomer, unassigned) [Example 575] | – | – | < 10 | < 100 |
| C[C@H]1COC(=O)N1c1cccc(N2c3nc(Nc4cnn(C5CCN(C)CC5)c4)ncc3[C@@]3(C)COC(C)(C)C[C@@H]23)n1 (single isomer, unassigned) [Example 243] | < 10 | < 100 | – | – |
| CC1(C)C[C@H]2N(c3cccc(N4CCCC4=O)n3)c3nc(Nc4ccc([C@@H]5CCNC5)cc4)ncc3[C@@]2(C)CO1 [Example 632, 1-(6-((4bR,8aR)-4b,7,7-trimethyl-2-((4-((S)-pyrrolidin-3-yl)phenyl)amino)-4b,7,8,8a-tetrahydropyrano[3′,4′:4,5]pyrrolo[2,3-d]pyrimidin-9(5H)-yl)pyridin-2-yl)pyrrolidin-2-one] | – | – | < 10 | 100 to 1000 |
| CN1CCC[C@@H]1c1ccc(Nc2ncc3c(n2)N(c2cccc(N=S(C)(C)=O)n2)[C@@H]2CC(C)(C)OC[C@]32C)cn1 (single isomer, unassigned) [Example 210] | < 10 | 100 to 1000 | – | – |
| CN1C[C@@H]2C[C@H]1CN2c1ccc(Nc2ncc3c(n2)N(c2cccc(C4(O)CC4)n2)[C@@H]2CC(C)(C)OC[C@]32C)cc1 [Example 644, 1-(6-((4bR,8aR)-4b,7,7-trimethyl-2-((4-((1S,4S)-5-methyl-2,5-diazabicyclo[2.2.1]heptan-2-yl)phenyl)amino)-4b,7,8,8a-tetrahydropyrano[3′,4′:4,5]pyrrolo[2,3-d]pyrimidin-9(5H)-yl)pyridin-2-yl)cyclopropan-1-ol] | – | – | < 10 | 100 to 1000 |
| CN(C)Cc1cccc(N2c3nc(Nc4ccc(N5CCOCC5)cc4)ncc3[C@@]3(C)COC(C)(C)C[C@@H]23)n1 (single isomer, unassigned) [Example 523] | – | – | < 10 | 100 to 1000 |
| Cc1cc(Nc2ncc3c(n2)N(c2cccc(N=S(C)(C)=O)n2)[C@@H]2CC(C)(C)OC[C@]32C)ccc1[C@@H]1COCCN1 (single isomer, unassigned) [Example 114] | < 10 | < 100 | – | – |
| C[C@H]1COC(=O)N1c1cccc(N2c3nc(Nc4ccc(C(C)(C)C)nc4)ncc3[C@@]3(C)COC(C)(C)C[C@@H]23)n1 (single isomer, unassigned) [Example 301] | < 10 | 1000 to 10000 | – | – |
